Experimental findings from PubChem BioAssay (NCI) are described below.

Each structure is given as a SMILES string. “And” between values parts separate entries of the source, which are not always exact repeats. Equal entries are not always repeated.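 How tested: cells in 96-well plates exposed to compound for 48 hours at five concentrations. TGI denotes the concentration required for complete inhibition of growth.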 Bounds are passed on as bounds.

Among the test systems are HT29 colon; SNB-19 CNS; HCT-116 colon; LOX IMVI melanoma; M14 melanoma; NCI-H522 lung; SF-539 CNS; RPMI-8226 leukemia; U251 CNS.
Holding throughout (experiment): inhibition of tumour cell growth, NCI panel, 48 h

As to `Cc1ccc2nc(NC(=O)C(=O)C(C(=O)c3ccc4ccccc4c3)C3OC(=O)c4ccccc43)sc2c1` (stereo not given), the TGI in the assay with HT29 colon amounted to 31.3 µM; with SNB-19 CNS, 26.4 µM; in the assay with HCT-116 colon it was 20.8 µM; with LOX IMVI melanoma it was 27.7 µM; in the assay on M14 melanoma, 28.2 µM; in the assay on NCI-H522 lung, 26.3 µM. Also, the figures for the TGI with SF-539 CNS, with RPMI-8226 leukemia and in the assay on U251 CNS were 9.21 µM, more than 100 µM and 15.5 µM, respectively.

As to `O=S(=O)(C1=CC(S(=O)(=O)c2ccccc2)COC1)c1ccccc1` (stereo not given), the TGI in the assay on HT29 colon, with SNB-19 CNS, in the assay on HCT-116 colon, in the assay with LOX IMVI melanoma, with M14 melanoma and in the assay with NCI-H522 lung was more than 100 µM throughout. Also, the TGI with SF-539 CNS, with RPMI-8226 leukemia and with U251 CNS was more than 100 µM in each case.

Regarding `c1ccc2c(c1)[nH]c1cnc3c4ncccc4[nH]c3c12`, the TGI in the assay on HT29 colon, in the assay on SNB-19 CNS, with HCT-116 colon, in the assay on LOX IMVI melanoma, in the assay with M14 melanoma and with NCI-H522 lung was more than 100 µM throughout. Also, the TGI in the assay with SF-539 CNS, in the assay with RPMI-8226 leukemia and with U251 CNS was more than 100 µM each time.

`CC(C)N(C(=O)C12C3C4C1C1C2C3C41C(=O)C(C)(C)C)C(C)C` (stereo not given): the TGI was more than 100 µM in the assay on HT29 colon; more than 100 µM in the assay on SNB-19 CNS; more than 100 µM in the assay on HCT-116 colon; more than 100 µM in the assay on LOX IMVI melanoma; more than 100 µM with M14 melanoma; 56.8 µM in the assay with NCI-H522 lung. For the same molecule, the TGI with SF-539 CNS, in the assay on RPMI-8226 leukemia and in the assay on U251 CNS was more than 100 µM in each case.

With `Nc1cn(C2OC(CC(c3ccccc3)(c3ccccc3)c3ccccc3)C(O)C2O)c(=O)[nH]c1=O` (stereo not given), the TGI is 58.8 µM in the assay on HT29 colon; more than 100 µM with SNB-19 CNS; 32 µM in the assay with HCT-116 colon; 35.2 µM in the assay with LOX IMVI melanoma; 48.6 µM in the assay on M14 melanoma; 38.3 µM in the assay with NCI-H522 lung. The values for the TGI in the assay with RPMI-8226 leukemia and with U251 CNS were 42 µM and 32.1 µM, respectively.

As for `NC1=NN(c2ccccc2)C(=O)C1C(=O)C(=O)Nc1ccc(Cl)cc1` (stereo not given), the TGI with HT29 colon, in the assay on HCT-116 colon, with LOX IMVI melanoma, in the assay on M14 melanoma, in the assay on NCI-H522 lung and in the assay on SF-539 CNS was more than 100 µM each time. Besides, the TGI in the assay on RPMI-8226 leukemia and with U251 CNS was more than 100 µM throughout.

Regarding `Cc1noc2cccc(O)c12`, the TGI with HT29 colon, in the assay with SNB-19 CNS, in the assay on HCT-116 colon, in the assay on LOX IMVI melanoma, in the assay on M14 melanoma and with NCI-H522 lung was more than 100 µM throughout. Also, the TGI with SF-539 CNS and in the assay on U251 CNS was more than 100 µM each time.

`CC(=O)OC1C[C@H]2C(OC(=O)c3ccccc3)C3C4(OC(C)=O)COC4C[C@H](OC(C)=O)[C@@]3(C)C(OC(C)=O)[C@H](OC(C)=O)C(=C1C)C2(C)C` (stereo not given in full): the TGI with HT29 colon was more than 100 µM; in the assay on SNB-19 CNS, more than 100 µM; in the assay on HCT-116 colon it was more than 100 µM; in the assay on LOX IMVI melanoma, more than 100 µM; in the assay on M14 melanoma it was more than 100 µM; in the assay on NCI-H522 lung, 79.2 µM. For the same molecule, the TGI in the assay on SF-539 CNS and with RPMI-8226 leukemia was more than 100 µM throughout.

Turning to `NC(CCSCC(F)(F)F)C(=O)O` (stereo not given), the TGI in the assay on HT29 colon, in the assay on SNB-19 CNS, with HCT-116 colon, in the assay with LOX IMVI melanoma, in the assay on M14 melanoma and in the assay with NCI-H522 lung was more than 100 µM throughout. Further, the TGI with SF-539 CNS and in the assay on U251 CNS was more than 100 µM in each case.

On to `O=C(CCc1nc(=S)[nH][nH]1)Nc1cc(Cl)ccc1Cl`, for which the TGI in the assay on HT29 colon, in the assay with SNB-19 CNS, with HCT-116 colon, with M14 melanoma, with NCI-H522 lung and in the assay on SF-539 CNS was more than 100 µM each time. Also, the TGI in the assay on RPMI-8226 leukemia and in the assay with U251 CNS was more than 100 µM each time.

In the case of `C/C(=C1/N=C(c2cc([N+](=O)[O-])ccc2Cl)N(c2ccc(Br)cc2)C1=O)c1ccc(N(CCC#N)CCC#N)cc1C`, the TGI is more than 100 µM with HT29 colon; more than 100 µM in the assay with SNB-19 CNS; 29.5 µM in the assay on HCT-116 colon; 29.1 µM in the assay on LOX IMVI melanoma; more than 100 µM in the assay with M14 melanoma; more than 100 µM with SF-539 CNS. The molecule further registered a TGI with RPMI-8226 leukemia of 77.2 µM.

In the case of `O=C(Nc1cccc(C(F)(F)F)c1)C(=O)C(C(=O)c1ccc(Cl)c(Cl)c1)C1OC(=O)c2ccccc21` (stereo not given), the TGI in the assay with HT29 colon was more than 100 µM; with SNB-19 CNS, more than 100 µM; in the assay on HCT-116 colon, 34.7 µM; in the assay on LOX IMVI melanoma, more than 100 µM; in the assay on M14 melanoma, more than 100 µM; in the assay with NCI-H522 lung, more than 100 µM. Besides, the TGI with RPMI-8226 leukemia and in the assay with U251 CNS was more than 100 µM in each case.

As for `Oc1ccc2ccccc2c1CCc1c(O)ccc2ccccc12`, the TGI in the assay on HT29 colon came to 18.6 µM; in the assay on SNB-19 CNS, 32.4 µM; in the assay with HCT-116 colon it was 25.1 µM; with LOX IMVI melanoma, 28 µM; in the assay on M14 melanoma, 29.5 µM; in the assay on SF-539 CNS, 30.3 µM. For the same molecule, the figures for the TGI in the assay with RPMI-8226 leukemia and with U251 CNS were 22 µM and 26 µM, respectively.

In the case of `C#CCN(N=O)C(=O)NC(CCCCNC(=O)OCc1ccccc1)C(=O)OCc1ccccc1` (stereo not given), the TGI was 46.9 µM with HT29 colon; more than 100 µM in the assay with SNB-19 CNS; more than 100 µM in the assay on HCT-116 colon; 59.1 µM with LOX IMVI melanoma; 56.6 µM with M14 melanoma; 31.7 µM in the assay with NCI-H522 lung. The figures for the TGI in the assay on RPMI-8226 leukemia and in the assay on U251 CNS were 45.9 µM and 76.8 µM, respectively.

On to `CCOC(=O)c1oc2c(OC)ccc3c2c1CCC3`, for which the TGI in the assay on HT29 colon, in the assay on SNB-19 CNS, in the assay on LOX IMVI melanoma, in the assay with M14 melanoma, in the assay with NCI-H522 lung and in the assay with SF-539 CNS was more than 100 µM in each case. For the same molecule, the TGI in the assay with RPMI-8226 leukemia and in the assay on U251 CNS was more than 100 µM in each case.

As for `NC(Cc1ccccc1)C(=O)OCN1C(=O)C2C3C=CC(C2C1=O)C1C2C(=O)N(COC(=O)C(N)Cc4ccccc4)C(=O)C2C31` (stereo not given), the TGI was more than 100 µM in the assay with HT29 colon; more than 100 µM in the assay with SNB-19 CNS; 33.9 µM and 46.2 µM in the assay on HCT-116 colon; 41.4 µM and 36.8 µM in the assay with LOX IMVI melanoma; 35 µM and 33.9 µM in the assay with M14 melanoma; 44.8 µM and 44.6 µM with SF-539 CNS. The TGI is 56.4 µM and 44.7 µM in the assay on RPMI-8226 leukemia; 39.1 µM and 34.6 µM in the assay with U251 CNS.

For the molecule `O=C1NC(=O)C(C(=O)C(=O)Nc2cc(Cl)ccc2Cl)C(=O)N1`, the TGI in the assay with SNB-19 CNS, with HCT-116 colon, in the assay on M14 melanoma, with NCI-H522 lung, in the assay with SF-539 CNS and in the assay with RPMI-8226 leukemia was more than 100 µM each time. In the assay on U251 CNS, this molecule displayed a TGI of more than 100 µM.

Regarding `CCCCCCCCSC(=O)NCCCC`, the TGI is 66.6 µM in the assay with HT29 colon; more than 100 µM with SNB-19 CNS; 40.2 µM in the assay with LOX IMVI melanoma; 79 µM in the assay on M14 melanoma; 80.4 µM with NCI-H522 lung; more than 100 µM with SF-539 CNS. The TGI with RPMI-8226 leukemia was 57.9 µM; with U251 CNS, more than 100 µM.

For `CC(Oc1cc2oc(=O)cc(-c3ccccc3)c2cc1Cl)C(=O)O` (stereo not given), the TGI in the assay with HT29 colon, with SNB-19 CNS, in the assay on HCT-116 colon, in the assay with LOX IMVI melanoma, in the assay on M14 melanoma and in the assay with NCI-H522 lung was more than 100 µM in each case. Moreover, the TGI in the assay on SF-539 CNS and with U251 CNS was more than 100 µM in each case.

Consider `CC(=O)OCCOCn1c2ccccc2c2c3c(c4c5ccccc5n(COCCOC(C)=O)c4c21)C(=O)N(Cc1ccccc1)C3=O`, for which the TGI in the assay with HT29 colon, in the assay with SNB-19 CNS, in the assay with HCT-116 colon, with LOX IMVI melanoma, with M14 melanoma and in the assay with SF-539 CNS was more than 100 µM throughout. Moreover, the TGI in the assay on RPMI-8226 leukemia and with U251 CNS was more than 100 µM throughout.

For the molecule `CCCCC(C(=O)C(=O)Nc1ccc(C)cc1C)C(=O)C(C)C` (stereo not given), the TGI in the assay on HT29 colon, in the assay on SNB-19 CNS, with HCT-116 colon, with LOX IMVI melanoma, in the assay with M14 melanoma and with SF-539 CNS was more than 100 µM throughout. The TGI with RPMI-8226 leukemia and with U251 CNS was more than 100 µM in each case.

Turning to `CC(=O)Nc1ccccc1-c1nc2ccccc2nc1-c1ccccc1`, the TGI with HT29 colon, in the assay with SNB-19 CNS, in the assay with HCT-116 colon, in the assay with M14 melanoma, in the assay with SF-539 CNS and with RPMI-8226 leukemia was more than 100 µM each time. In the assay with U251 CNS, the TGI was more than 100 µM.

Regarding `C[N+]1=C(c2cccnc2/C=N/O)OCC1(C)C`, the TGI in the assay with HT29 colon, in the assay with SNB-19 CNS, in the assay with HCT-116 colon, in the assay with LOX IMVI melanoma, in the assay with M14 melanoma and in the assay with NCI-H522 lung was more than 100 µM throughout. Besides, the TGI in the assay on SF-539 CNS and with U251 CNS was more than 100 µM throughout.
